Earlier results, collected in patent US10441535B2, “Nutraceutical confectionary composition containing caffeine and L-theanine” (NeuroGum, LLC, priority 2015, dated 2019).

Conditions: human, in vivo

In the case of N-Ethyl-L-glutamine [L-theanine], the elimination half-life is given as 1 to 2 h.
